The results in this text go back to patent publication US20250312411A1, “Treatment of Multi-Drug-Resistant Cancers Using Nanoparticulate Drug Delivery Vehicles” (priority 2024, published 2025).

What all share (format): cell-based
Experiment [1] relates to tunneling nanotubes (TNTs) in 50:50 DS/MDR MDA-MB-231 cells. The experiment is described as follows: Number of TNTs/cm^2 counted in 50:50 DS/MDR co-culture after treatment. The note with it: 50:50 DS/MDR ratio of MDA-MB-231 cells, n=25, FIG. 4C.
Another experiment concerns MDR TNBC cells. The experiment is described as follows: Wound healing assay (cell migration), MDR cells. As to conditions: AS-LNP at 10 PM and 30 PM, n=10, FIG. 6B. The text has this: (§1) SNARE proteins mediate EV release but also mediate the fusion of TNTs with recipient cells.
A further experiment deals with DS TNBC cells. The experiment is described as follows: Wound healing assay (cell migration), drug sensitive cells. As to conditions: AS-LNP at 10 PM and 30 PM, n=10, FIG. 6A.
Description: as §1

As for `C/C1=C\[C@@H](C)C/C=C/[C@H]2[C@@H]3O[C@]3(C)[C@@H](C)[C@H]3[C@H](Cc4c[nH]c5ccccc45)NC(=O)[C@]32C(=O)/C=C/C(=O)[C@@H]1O` [CA, chaetoglobosin A], the “number of TNTs/cm^2” value in experiment [1] is “significantly reduced the number of TNTs”.

On to `O=C(/C=C/c1ccc(/C=C/C(=O)Nc2ccc(C3=NCCN3)cc2)cc1)Nc1ccc(C2=NCCN2)cc1` [GW4869], for which the “cell migration in wound healing assay” value with MDR TNBC cells and in the experiment with DS TNBC cells was “did not decrease cell migration” in each case.

As for `CN(C)C(=N)N=C(N)N` [metformin], the “number of TNTs/cm^2” value in experiment [1] is listed as “more effective in reducing the number of TNTs”.
